From US20120178738A1, “DIBENZO [B,F] [1,4]OXAZAPINE COMPOUNDS” (ARYX THERAPEUTICS, INC., priority 2007, published 2012)

Columns and labels:
[1] = target: T1, human M1 receptors (Homo sapiens, UniProt P11229); assay: hM1 receptor radioligand binding ([3H]NMS); details: pKi reported on a scale of 1 through 5
T1 construct: expressed in transfected cells; host or cells: Chinese hamster ovary cells (membranes)
T1 sequence (P11229 1-460): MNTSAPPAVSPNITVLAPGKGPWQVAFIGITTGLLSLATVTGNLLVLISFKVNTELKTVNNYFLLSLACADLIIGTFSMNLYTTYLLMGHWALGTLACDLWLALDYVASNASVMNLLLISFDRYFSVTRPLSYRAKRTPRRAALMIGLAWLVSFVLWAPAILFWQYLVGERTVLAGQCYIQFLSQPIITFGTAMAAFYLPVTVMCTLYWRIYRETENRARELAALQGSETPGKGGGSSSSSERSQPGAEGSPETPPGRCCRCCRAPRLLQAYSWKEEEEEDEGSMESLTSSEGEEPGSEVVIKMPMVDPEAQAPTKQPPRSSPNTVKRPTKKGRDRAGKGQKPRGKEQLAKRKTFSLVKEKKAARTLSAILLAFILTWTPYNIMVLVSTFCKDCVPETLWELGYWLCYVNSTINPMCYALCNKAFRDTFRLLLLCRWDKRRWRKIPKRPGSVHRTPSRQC
Description: (§1) Consistent with standard competition radioligand binding assays, the methodology was based on displacement of radioligand from tissues (or cell lines) bearing the receptor of interest (Cheng, Y. and Prusoff, W. H. (1973). Biochem. Pharmacol. 22, 3099-3108). The measurements were based on the binding of a single concentration of radiolabeled ligand in the presence of various concentrations of unlabeled ligand.
(§2) Tissues (or cellular plasma membrane fractions) were incubated in the presence of radioligand at equilibrium and in the presence of a range of concentrations of the test compounds (which were non-radiolabeled), and the displaced radioligand was separated from the membranes by filtration. Nonspecific binding was assessed by measuring displacement of the radioligand in the presence of a compound known to block binding of the radioligand to the receptor. Finally, the concentration-response relationship for radioligand displacement (corrected for non-specific binding) was used to assess binding of the test compound to the receptor.

[2] = target: T2, human 5HT2C receptors (Homo sapiens, UniProt P28335); assay: h5-HT2C receptor radioligand binding ([3H]Mesulergine); details: pKi reported on a scale of 1 through 5
T2 construct: expressed in transfected cells; host or cells: human embryo kidney cells (membranes)
T2 sequence (P28335 33-458): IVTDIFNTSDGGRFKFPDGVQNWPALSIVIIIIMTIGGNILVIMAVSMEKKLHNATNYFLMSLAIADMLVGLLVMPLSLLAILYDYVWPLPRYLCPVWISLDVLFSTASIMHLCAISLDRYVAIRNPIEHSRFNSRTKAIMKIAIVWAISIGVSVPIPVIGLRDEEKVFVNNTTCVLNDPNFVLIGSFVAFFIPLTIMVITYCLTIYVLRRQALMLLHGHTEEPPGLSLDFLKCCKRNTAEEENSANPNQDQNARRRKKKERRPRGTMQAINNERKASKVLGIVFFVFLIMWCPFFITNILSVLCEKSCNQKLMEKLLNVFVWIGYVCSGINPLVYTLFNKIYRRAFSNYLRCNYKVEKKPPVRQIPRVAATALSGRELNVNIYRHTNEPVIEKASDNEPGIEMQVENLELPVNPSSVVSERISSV
Description: The measurements were based on the binding of a single concentration of radiolabeled ligand in the presence of various concentrations of unlabeled ligand.
as §2

[3] = target: T3, human 5HT1A receptors (Homo sapiens, UniProt P08908); assay: h5-HT1A receptor radioligand binding ([3H]8OH-DPAT); details: pKi reported on a scale of 1 through 5
T3 construct: expressed in transfected cells; host or cells: Chinese hamster ovary cells (membranes)
T3 sequence (P08908 1-422): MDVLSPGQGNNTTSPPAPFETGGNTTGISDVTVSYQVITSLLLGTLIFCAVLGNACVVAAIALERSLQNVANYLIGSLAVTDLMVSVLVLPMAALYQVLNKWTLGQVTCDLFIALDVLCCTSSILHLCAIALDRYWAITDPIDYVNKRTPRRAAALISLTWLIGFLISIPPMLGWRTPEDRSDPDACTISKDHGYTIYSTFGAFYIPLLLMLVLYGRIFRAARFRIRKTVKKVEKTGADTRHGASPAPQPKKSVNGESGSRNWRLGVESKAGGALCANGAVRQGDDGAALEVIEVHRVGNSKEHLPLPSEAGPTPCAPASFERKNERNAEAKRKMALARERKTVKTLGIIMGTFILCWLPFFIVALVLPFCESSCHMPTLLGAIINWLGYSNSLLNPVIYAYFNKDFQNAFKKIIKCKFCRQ
Description: as §1, §2

[4] = target: T4, human D2s dopamine receptors (Homo sapiens, UniProt P14416); assay: hD2S receptor radioligand binding ([3H]spiperone); details: pKi reported on a scale of 1 through 5
T4 construct: expressed in transfected cells; host or cells: Chinese hamster ovary cells (membranes)
T4 sequence (P14416 1-414 isoform P14416-2): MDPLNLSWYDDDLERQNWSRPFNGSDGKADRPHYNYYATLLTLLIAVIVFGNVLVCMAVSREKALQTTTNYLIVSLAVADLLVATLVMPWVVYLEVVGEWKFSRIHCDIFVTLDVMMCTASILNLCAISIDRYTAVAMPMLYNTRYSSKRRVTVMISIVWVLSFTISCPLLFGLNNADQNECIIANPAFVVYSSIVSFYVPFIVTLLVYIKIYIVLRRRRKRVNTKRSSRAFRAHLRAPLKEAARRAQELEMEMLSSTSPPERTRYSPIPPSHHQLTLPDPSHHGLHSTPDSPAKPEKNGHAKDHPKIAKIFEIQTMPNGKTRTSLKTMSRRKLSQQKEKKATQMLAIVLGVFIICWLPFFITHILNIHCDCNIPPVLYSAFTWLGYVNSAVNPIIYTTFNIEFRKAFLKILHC
Description: as §1, §2

[5] = target: T5, human M3 receptors (Homo sapiens, UniProt P20309); assay: hM3 receptor radioligand binding ([3H]NMS); details: pKi reported on a scale of 1 through 5; read-out: M3 (pKi) (converted)
T5 construct: expressed in transfected cells; host or cells: Chinese hamster ovary cells (membranes)
T5 sequence (P20309 whole entry): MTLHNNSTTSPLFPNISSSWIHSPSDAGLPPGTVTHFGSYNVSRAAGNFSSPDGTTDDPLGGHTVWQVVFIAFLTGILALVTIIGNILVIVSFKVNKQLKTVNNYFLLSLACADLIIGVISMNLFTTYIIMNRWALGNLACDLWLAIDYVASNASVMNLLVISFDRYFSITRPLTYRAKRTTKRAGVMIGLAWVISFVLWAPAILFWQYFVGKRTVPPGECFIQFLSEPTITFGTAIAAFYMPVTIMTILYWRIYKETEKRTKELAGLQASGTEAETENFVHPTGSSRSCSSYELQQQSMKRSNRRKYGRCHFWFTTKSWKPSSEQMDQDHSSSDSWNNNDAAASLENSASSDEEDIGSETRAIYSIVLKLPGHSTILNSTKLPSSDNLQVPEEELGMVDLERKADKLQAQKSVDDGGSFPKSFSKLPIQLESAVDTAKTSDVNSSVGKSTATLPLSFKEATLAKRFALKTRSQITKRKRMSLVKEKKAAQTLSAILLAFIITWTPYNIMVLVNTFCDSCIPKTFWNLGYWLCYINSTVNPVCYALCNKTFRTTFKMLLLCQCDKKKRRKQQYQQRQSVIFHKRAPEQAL
Description: as §1, §2

[6] = target: T6, human H1 receptors (Homo sapiens, UniProt P35367); assay: hH1 receptor radioligand binding ([3H]Pyrilamine); details: pKi reported on a scale of 1 through 5
T6 construct: expressed in transfected cells; host or cells: Chinese hamster ovary cells (membranes)
T6 sequence (P35367 whole entry): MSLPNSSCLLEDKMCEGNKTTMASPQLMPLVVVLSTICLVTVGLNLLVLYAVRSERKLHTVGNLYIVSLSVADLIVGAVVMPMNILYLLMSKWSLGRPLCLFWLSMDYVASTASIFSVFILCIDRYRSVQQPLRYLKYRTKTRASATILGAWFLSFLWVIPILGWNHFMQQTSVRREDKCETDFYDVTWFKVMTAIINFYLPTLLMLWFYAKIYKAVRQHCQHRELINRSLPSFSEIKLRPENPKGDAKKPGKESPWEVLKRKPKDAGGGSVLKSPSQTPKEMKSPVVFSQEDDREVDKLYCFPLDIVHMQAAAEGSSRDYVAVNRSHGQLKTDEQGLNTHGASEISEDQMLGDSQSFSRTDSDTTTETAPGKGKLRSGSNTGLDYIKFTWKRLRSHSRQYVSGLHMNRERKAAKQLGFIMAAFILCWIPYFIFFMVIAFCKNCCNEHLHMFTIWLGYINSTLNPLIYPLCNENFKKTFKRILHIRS
Description: as §1, §2

[7] = target: T7, human D2L dopamine receptors (Homo sapiens, UniProt P14416); assay: hD2L receptor radioligand binding ([3H]spiperone); details: pKi reported on a scale of 1 through 5; read-out: D2L (pKi) (converted)
T7 construct: expressed in transfected cells; host or cells: insect Sf9 cells (membranes)
T7 sequence (P14416 whole entry): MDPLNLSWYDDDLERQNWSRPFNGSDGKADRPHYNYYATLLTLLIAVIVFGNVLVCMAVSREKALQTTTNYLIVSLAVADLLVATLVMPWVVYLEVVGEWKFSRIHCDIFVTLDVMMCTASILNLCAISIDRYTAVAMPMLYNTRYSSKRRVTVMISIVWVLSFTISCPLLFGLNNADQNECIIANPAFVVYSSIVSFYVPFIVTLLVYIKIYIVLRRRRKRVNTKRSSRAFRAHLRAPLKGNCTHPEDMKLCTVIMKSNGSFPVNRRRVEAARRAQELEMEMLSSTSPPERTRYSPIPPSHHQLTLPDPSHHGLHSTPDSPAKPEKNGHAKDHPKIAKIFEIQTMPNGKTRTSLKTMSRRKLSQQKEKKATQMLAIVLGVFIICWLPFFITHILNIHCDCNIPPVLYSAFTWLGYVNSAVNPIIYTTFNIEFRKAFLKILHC
Description: as §1, §2

[8] = target: T8, 5-HT2A receptor (Rattus norvegicus, UniProt P14842); assay: cell-based; details: read-out: 5HT2A (pKb) (converted)
T8 construct: Eight strips of tissue (0.5 cm long) were cut. and were mounted in 10 ml organ baths; tissue Charles River Laboratories; host or cells: rat aorta strips, endothelium removed
T8 sequence (P14842 whole entry): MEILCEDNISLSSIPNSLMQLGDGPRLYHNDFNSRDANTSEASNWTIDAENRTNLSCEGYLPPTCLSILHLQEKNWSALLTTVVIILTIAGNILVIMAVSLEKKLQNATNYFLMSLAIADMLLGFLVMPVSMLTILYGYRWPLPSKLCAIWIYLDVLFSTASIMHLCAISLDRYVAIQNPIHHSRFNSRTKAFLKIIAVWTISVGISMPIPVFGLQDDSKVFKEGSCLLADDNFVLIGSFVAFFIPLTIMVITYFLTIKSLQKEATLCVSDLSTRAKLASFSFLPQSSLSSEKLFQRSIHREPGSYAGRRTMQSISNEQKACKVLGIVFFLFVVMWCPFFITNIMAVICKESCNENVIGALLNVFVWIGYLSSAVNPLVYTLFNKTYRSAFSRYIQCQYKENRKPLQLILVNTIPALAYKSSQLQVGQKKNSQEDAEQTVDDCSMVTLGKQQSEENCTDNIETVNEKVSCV
Description: The rat aorta (approximately 7 cm) was isolated and removed from the animal (male Sprague Dawley rat, Charles River Laboratories, Hollister, Calif.). The endothelium was removed mechanically. Eight strips of tissue (0.5 cm long) were cut. and were mounted in 10 ml organ baths kept at 37° C. with Krebs solution (composition in mM: NaCl (118.2), KCl (4.6), CaCl2 (2.5), MgSO4 (1.2), KH2PO4 (1.2), NaHCO3 (24.8) and dextrose (10.0)) that was constantly aerated with carbogen gas (95% O2/5% CO2) to obtain a pH of 7.4. The tissues were subjected to a resting tension of 2 g (3 times, 15 minutes apart, equilibrated in Krebs solution). The tissues were then washed 15 minutes later. Ten minutes later, the tissues were then exposed to 0.1 μM phenylephrine. At the maximal effect, 1 μM acetylcholine was added to confirm the absence of endothelium and then washed twice, 2 minutes apart.
Contractions were recorded as changes in tension from baseline and expressed as a percentage of the maximum response of the agonist (5-HT) concentration-effect curve. Agonist concentration-response curves were fitted using a nonlinear iterative fitting program (GraphPad Prism) using the relationship of Parker and Waud (Parker, R. B. and Waud, D. R. (1971). Pharmacological estimation of drug-receptor dissociation constants. Statistical evaluation. I. Agonists. J. Pharmacol. Exp. Ther., 177, 1-12). Agonist potency was expressed as EC50 (molar concentration of agonist producing 50% of the maximum response). Concentration-ratios (CRs) were determined from EC50 values in the presence and absence of antagonist and antagonist affinity estimates (pKB and pA2 values) were determined. All data are expressed as mean±s.e. mean.

[9] = target: T9, human 5HT7 receptors (Homo sapiens, UniProt P34969); assay: h5-HT7 receptor radioligand binding ([3H]5-CT); details: pKi reported on a scale of 1 through 5; read-out: 5HT7 (pKi) (converted)
T9 construct: expressed in transfected cells; host or cells: Chinese hamster ovary cells (membranes)
T9 sequence (P34969 whole entry): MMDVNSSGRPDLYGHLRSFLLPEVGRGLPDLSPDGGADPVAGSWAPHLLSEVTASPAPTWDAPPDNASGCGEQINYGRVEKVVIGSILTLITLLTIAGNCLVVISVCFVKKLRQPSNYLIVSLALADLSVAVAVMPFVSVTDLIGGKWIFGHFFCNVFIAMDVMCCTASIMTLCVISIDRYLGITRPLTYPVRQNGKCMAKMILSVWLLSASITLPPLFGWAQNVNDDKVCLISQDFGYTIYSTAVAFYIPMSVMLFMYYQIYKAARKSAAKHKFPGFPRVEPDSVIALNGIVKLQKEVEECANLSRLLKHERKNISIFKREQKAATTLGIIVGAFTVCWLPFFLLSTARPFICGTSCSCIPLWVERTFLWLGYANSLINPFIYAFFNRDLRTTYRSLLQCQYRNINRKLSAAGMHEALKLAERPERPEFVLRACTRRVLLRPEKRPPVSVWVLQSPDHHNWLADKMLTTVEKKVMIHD
Description: as §1, §2

| SMILES | Ki [1] [nM] | Ki [2] [nM] | Ki [3] [nM] | Ki [4] [nM] | Ki [5] [nM] | Ki [6] [nM] | Ki [7] [nM] | Kb [8] [nM] | Ki [9] [nM] |
| --- | --- | --- | --- | --- | --- | --- | --- | --- | --- |
| COC(=O)C[C@H]1CN(C2=Nc3cc(Cl)ccc3Oc3ccccc32)CCN1 [Compound N, (S,E)-methyl 2-(4-(8-chlorodibenzo[b,f][1,4]oxazepin-11-yl)piperazin-2-yl)acetate] | 5010 to 9770 | 10 to 97.7 | 100 to 977 | 631 to 2450 | > 10000 | 100 to 977 | 631 to 2450 | 3.16 to 9.77 | 631 to 1550 |
| O=C(C[C@H]1CN(C2=Nc3cc(Cl)ccc3Oc3ccccc32)CCN1)N1CCC[C@H]1C(F)(F)F [GH, 2-((S)-4-((E)-8-chlorodibenzo[b,f][1,4]oxazepin-11-yl)piperazin-2-yl)-1-((S)-2-(trifluoromethyl)pyrrolidin-1-yl)ethanone] | ≤ 1230 | 100 to 977 | 100 to 977 | 2510 to 9770 | 7940 to 9770 | 10 to 97.7 | 631 to 2450 | 31.6 to 97.7 | 1580 to 3890 |
| CN1CCN(C2=Nc3cc(Cl)ccc3Oc3ccccc32)C[C@@H]1CC(=O)OC1CCCC1 [DX, (S,E)-cyclopentyl 2-(4-(8-chlorodibenzo[b,f][1,4]oxazepin-11-yl)-1-methylpiperazin-2-yl)acetate] | 5010 to 9770 | 100 to 977 | 1000 to 9770 | 2510 to 9770 | > 10000 | 100 to 977 | 2510 to 9770 | 10 to 30.9 | > 10000 |
| O=C(C[C@H]1CN(C2=Nc3cc(Cl)ccc3Oc3ccccc32)CCN1)NCCCO [Compound FS, (S,E)-2-(4-(8-chlorodibenzo[b,f][1,4]oxazepin-11-yl)piperazin-2-yl)-N-(3-hydroxypropyl)acetamide] | > 10000 | 10 to 97.7 | 10 to 97.7 | 631 to 2450 | > 10000 | ≤ 9.77 | 631 to 2450 | 3.16 to 9.77 | < 617 |
| COCCNC(=O)C[C@H]1CN(C2=Nc3cc(Cl)ccc3Oc3ccccc32)CCN1 [FC, (S,E)-2-(4-(8-chlorodibenzo[b,f][1,4]oxazepin-11-yl)piperazin-2-yl)-N-(2-methoxyethyl)acetamide] | > 10000 | 10 to 97.7 | 10 to 97.7 | 631 to 2450 | > 10000 | 10 to 97.7 | 631 to 2450 | 3.16 to 9.77 | 631 to 1550 |
| CN(CCO)C(=O)C[C@H]1CN(C2=Nc3cc(Cl)ccc3Oc3ccccc32)CCN1 [FO, (S,E)-2-(4-(8-chlorodibenzo[b,f][1,4]oxazepin-11-yl)piperazin-2-yl)-N-(2-hydroxyethyl)-N-methylacetamide] | 2510 to 4900 | 10 to 97.7 | 100 to 977 | 2510 to 9770 | > 10000 | 10 to 97.7 | 2510 to 9770 | 10 to 30.9 | 631 to 1550 |
| C[C@@H](O)CNC(=O)C[C@H]1CN(C2=Nc3cc(Cl)ccc3Oc3ccccc32)CCN1 [FB, 2-((S)-4-((E)-8-chlorodibenzo[b,f][1,4]oxazepin-11-yl)piperazin-2-yl)-N-((R)-2-hydroxypropyl)acetamide] | > 10000 | 10 to 97.7 | 10 to 97.7 | 631 to 2450 | > 10000 | 10 to 97.7 | 631 to 2450 | < 3.09 | 631 to 1550 |
| CCCN(CCO)C(=O)C[C@H]1CN(C2=Nc3cc(Cl)ccc3Oc3ccccc32)CCN1 [EZ, (S,E)-2-(4-(8-chlorodibenzo[b,f][1,4]oxazepin-11-yl)piperazin-2-yl)-N-(2-hydroxyethyl)-N-propylacetamide] | > 10000 | 10 to 97.7 | ≤ 9.77 | 2510 to 9770 | > 10000 | 10 to 97.7 | 2510 to 9770 | 31.6 to 97.7 | 631 to 1550 |
| O=C(C[C@H]1CN(C2=Nc3cc(Cl)ccc3Oc3ccccc32)CCN1)NCC(O)C(F)(F)F (stereo partly drawn) [GF, 2-((S)-4-((E)-8-chlorodibenzo[b,f][1,4]oxazepin-11-yl)piperazin-2-yl)-N-(3,3,3-trifluoro-2-hydroxypropyl)acetamide] | > 10000 | 10 to 97.7 | 100 to 977 | 631 to 2450 | > 10000 | 10 to 97.7 | 2510 to 9770 | 10 to 30.9 | 631 to 1550 |
| COCCCNC(=O)C[C@H]1CN(C2=Nc3cc(Cl)ccc3Oc3ccccc32)CCN1 [GD, (S,E)-2-(4-(8-chlorodibenzo[b,f][1,4]oxazepin-11-yl)piperazin-2-yl)-N-(3-methoxypropyl)acetamide] | > 10000 | 10 to 97.7 | 10 to 97.7 | 631 to 2450 | > 10000 | 10 to 97.7 | 631 to 2450 | 10 to 30.9 | 631 to 1550 |
| O=C(C[C@H]1CN(C2=Nc3cc(Cl)ccc3Oc3ccccc32)CCN1)NCC(F)F [FQ, (S,E)-2-(4-(8-chlorodibenzo[b,f][1,4]oxazepin-11-yl)piperazin-2-yl)-N-(2,2-difluoroethyl)acetamide] | 5010 to 9770 | 10 to 97.7 | 10 to 97.7 | 631 to 2450 | > 10000 | 10 to 97.7 | 631 to 2450 | 10 to 30.9 | 631 to 1550 |
